Source: US10155259B2 (Merck Sharp & Dohme B.V., priority 2011, dated 2018)

Target: T1, human FSH receptor (Homo sapiens, UniProt P23945)
T1 construct: expressed in transfected cells; host or cells: CHO cells, stably transfected; cotransfected with CRE-luciferase reporter
T1 sequence (P23945 18-695): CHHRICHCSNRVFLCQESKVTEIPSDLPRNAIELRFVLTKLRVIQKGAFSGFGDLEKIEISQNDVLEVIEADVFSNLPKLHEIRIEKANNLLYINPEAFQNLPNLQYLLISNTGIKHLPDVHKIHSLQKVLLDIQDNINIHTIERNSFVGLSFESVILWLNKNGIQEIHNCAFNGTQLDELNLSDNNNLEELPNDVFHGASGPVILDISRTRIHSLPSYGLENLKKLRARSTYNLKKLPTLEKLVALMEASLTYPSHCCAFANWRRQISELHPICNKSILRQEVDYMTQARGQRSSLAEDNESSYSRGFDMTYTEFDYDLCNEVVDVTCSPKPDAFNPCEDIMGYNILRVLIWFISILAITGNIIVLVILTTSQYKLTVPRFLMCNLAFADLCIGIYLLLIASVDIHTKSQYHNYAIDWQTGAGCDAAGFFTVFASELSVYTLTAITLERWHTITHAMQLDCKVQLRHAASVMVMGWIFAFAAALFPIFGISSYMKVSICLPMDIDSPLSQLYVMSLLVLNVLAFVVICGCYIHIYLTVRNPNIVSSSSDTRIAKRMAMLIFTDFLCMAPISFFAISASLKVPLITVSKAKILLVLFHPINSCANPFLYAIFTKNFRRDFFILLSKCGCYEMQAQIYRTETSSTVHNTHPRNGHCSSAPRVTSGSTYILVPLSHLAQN
Assay: Antagonistic activity of compounds at the human FSH receptor expressed in CHO cells (CRE-luciferase reporter)
Format: cell-based
Settings: CHO cells stably transfected with human FSH receptor and CRE/luciferase reporter; together with 49 μM recFSH; 4 hours incubation; 1% DMSO; read-out: IC50 (concentration of test compound causing half-maximal inhibition of the maximally attainable inhibition of the luciferase stimulation)
Protocol: Antagonistic Activity of Compounds at the Human FSH Receptor Expressed in CHO Cells
Antagonistic activity of the compounds at the human FSH receptor was determined in Chinese Hamster Ovary (CHO) cells stably transfected with the human FSH receptor and cotransfected with a cAMP responsive element (CRE)/promotor directing the expression of a firefly luciferase reporter gene. Binding of the compounds to the Gs protein-coupled FSH receptor will result in an increase of cAMP, which in turn will induce an increased transactivation of the luciferase reporter. The cells (7,500 cells/well of a 384 well plate) were incubated in Dulbecco' minimal essential F12 modified medium (Invitrogen), supplemented with 1 μg/ml bovine insulin, 5 μg/ml human apo-transferrin, 100 U/ml penicillin G and 100 μg/ml streptomycin with the test compounds (concentration between 0.316 nM and 10.0 μM) in duplicate together with […] (which, at this concentration in the absence of test compound, induces 80% of the maximal luciferase stimulation) in a humidified atmosphere (95%) at 5-7% CO2 and 37° C. The final concentration of DMSO was 1%. After 4 hours of incubation, plates were allowed to adjust to room temperature for 1 hour. Then, SteadyLite (PerkinElmer) solution was added to the wells and cells were allowed to lyse for at least 1 hour at room temperature. Subsequently, luciferase activity was measured in a luminescence counter. The signal is expressed as counts per second (cps). The IC50 (concentration of test compound causing half-maximal (50%) inhibition of the maximally attainable inhibition of the luciferase stimulation by the compound) and efficacy of the compounds were determined using the software program MathIQ (version 2.3, ID Business Solutions Limited).

Row | Compound | IC50 [µM]
1 | COc1cc2c(cc1OC)-c1cc(C(=O)N[C@@H](CO)Cc3c[nH]c4ccccc34)c(-c3cc(C)cc(C)c3)n1CC2 [Example 4, (R)-3-(3,5-dimethylphenyl)-N-(1-hydroxy-3-(1H-indol-3-yl)propan-2-yl)-8,9-dimethoxy-5,6-dihydropyrrolo[2,1-a]isoquinoline-2-carboxamide] | 0.1 to 1
2 | C=CCOc1cc2c(cc1OC)CCn1c-2cc(C(=O)N[C@@H](CO)Cc2c[nH]c3ccccc23)c1-c1cccs1 [Example 41] | < 0.1
3 | C=CCOc1cc2c(cc1OC)CCn1c-2cc(C(=O)N[C@@H](CO)Cc2c[nH]c3ccccc23)c1-c1cccc(F)c1 [Example 32, (R)-9-(allyloxy)-3-(3-fluorophenyl)-N-(1-hydroxy-3-(1H-indol-3-yl)propan-2-yl)-8-methoxy-5,6-dihydropyrrolo[2,1-a]isoquinoline-2-carboxamide] | 0.1 to 1
4 | COc1cc2c(cc1C(C)=C(C)C)-c1cc(C(=O)N[C@@H](CO)Cc3c[nH]c4ccccc34)c(-c3cccc(F)c3)n1CC2 [Example 46, (R)-3-(3-fluorophenyl)-N-(1-hydroxy-3-(1H-indol-3-yl)propan-2-yl)-8-methoxy-9-(3-methylbut-2-en-2-yl)-5,6-dihydropyrrolo[2,1-a]isoquinoline-2-carboxamide] | 0.1 to 1
5 | COc1cc2c(c(OC)c1OC)CCn1c-2cc(C(=O)N[C@@H](CO)Cc2c[nH]c3ccccc23)c1-c1cccs1 [Example 61, (R)—N-(1-hydroxy-3-(1H-indol-3-yl)propan-2-yl)-7,8,9-trimethoxy-3-(thiophen-2-yl)-5,6-dihydropyrrolo[2,1-a]isoquinoline-2-carboxamide] | < 0.1
6 | CCCC(=O)c1c(C(=O)N[C@@H](CO)Cc2c[nH]c3ccccc23)cc2n1CCc1cc(OC)c(OC(C)C)cc1-2 [Example 26, (R)-3-butyryl-N-(1-hydroxy-3-(1H-indol-3-yl)propan-2-yl)-9-isopropoxy-8-methoxy-5,6-dihydropyrrolo[2,1-a]isoquinoline-2-carboxamide] | < 0.1
7 | COc1cc2c(cc1OC)-c1nc(C(=O)N[C@@H](CO)Cc3c[nH]c4ccccc34)c(-c3ccccc3F)n1CC2 [Example 67, 3-(2-fluorophenyl)-N—((R)-1-hydroxy-3-(1H-indol-3-yl)propan-2-yl)-8,9-dimethoxy-5,6-dihydroimidazo[2,1-a]isoquinoline-2-carboxamide] | 0.1 to 1
8 | COc1cc2c(cc1C(=O)N(C)C)-c1cc(C(=O)N[C@@H](CO)Cc3c[nH]c4ccccc34)c(-c3cccc(F)c3)n1CC2 [Example 48, (R)-3-(3-fluorophenyl)-N2-(1-hydroxy-3-(1H-indol-3-yl)propan-2-yl)-8-methoxy-N9,N9-dimethyl-5,6-dihydropyrrolo[2,1-a]isoquinoline-2,9-dicarboxamide] | 0.1 to 1
9 | COc1cc2c(c(OC)c1OC)-c1cc(C(=O)N[C@@H](CO)Cc3c[nH]c4ccccc34)c(-c3cccc(F)c3)n1CC2 [Example 65, (R)-3-(3-fluorophenyl)-N-(1-hydroxy-3-(1H-indol-3-yl)propan-2-yl)-8,9,10-trimethoxy-5,6-dihydropyrrolo[2,1-a]isoquinoline-2-carboxamide] | < 0.1
10 | COc1cc2c(cc1OCC(O)CO)-c1cc(C(=O)N[C@@H](CO)Cc3c[nH]c4ccccc34)c(-c3cccs3)n1CC2 (stereo partly drawn) [Example 40, 9-(2,3-dihydroxypropoxy)-N—((R)-1-hydroxy-3-(1H-indol-3-yl)propan-2-yl)-8-methoxy-3-(thiophen-2-yl)-5,6-dihydropyrrolo[2,1-a]isoquinoline-2-carboxamide] | < 0.1
11 | COc1cc2c(cc1OC(C)C)-c1cc(C(=O)N[C@@H](CO)Cc3c[nH]c4ccccc34)c(-c3cccc(Cl)c3)n1CC2 [Example 16, (R)-3-(3-chlorophenyl)-N-(1-hydroxy-3-(1H-indol-3-yl)propan-2-yl)-9-isopropoxy-8-methoxy-5,6-dihydropyrrolo[2,1-a]isoquinoline-2-carboxamide] | < 0.1

Further lines, results first:

Row | IC50 [µM] | Compound
12 | < 0.1 | COc1cc2c(cc1OC)-c1cc(C(=O)N[C@@H](CO)Cc3c[nH]c4ccccc34)c(-c3cccs3)n1CC2 [Example 7, (R)—N-(1-hydroxy-3-(1H-indol-3-yl)propan-2-yl)-8,9-dimethoxy-3-(thiophen-2-yl)-5,6-dihydropyrrolo[2,1-a]isoquinoline-2-carboxamide]
13 | < 0.1 | COc1cc2c(cc1OC(C)C)-c1cc(C(=O)N[C@@H](CO)Cc3c[nH]c4ccccc34)c(-c3ccc(F)cc3)n1CC2 [Example 13, (R)-3-(4-fluorophenyl)-N-(1-hydroxy-3-(1H-indol-3-yl)propan-2-yl)-9-isopropoxy-8-methoxy-5,6-dihydropyrrolo[2,1-a]isoquinoline-2-carboxamide]
14 | < 0.1 | COc1cc2c(cc1-c1cccnc1OC)-c1cc(C(=O)N[C@@H](CO)Cc3c[nH]c4ccccc34)c(-c3cccs3)n1CC2 [Example 54, N—((R)-1-hydroxy-3-(1H-indol-3-yl)propan-2-yl)-8-methoxy-9-(2-methoxypyridin-3-yl)-3-(thiophen-2-yl)-5,6-dihydropyrrolo[2,1-a]isoquinoline-2-carboxamide]
15 | < 0.1 | COc1cc2c(cc1OC(C)C)-c1cc(C(=O)N[C@@H](CO)Cc3c[nH]c4ccccc34)c(C(=O)C(C)C)n1CC2 [Example 24, (R)—N-(1-hydroxy-3-(1H-indol-3-yl)propan-2-yl)-3-isobutyryl-9-isopropoxy-8-methoxy-5,6-dihydropyrrolo[2,1-a]isoquinoline-2-carboxamide]
16 | < 0.1 | COc1cccc(-c2c(C(=O)N[C@@H](CO)Cc3c[nH]c4ccccc34)cc3n2CCc2cc(OC)c(OC)cc2-3)c1 [Example 12, (R)—N-(1-hydroxy-3-(1H-indol-3-yl)propan-2-yl)-8,9-dimethoxy-3-(3-methoxyphenyl)-5,6-dihydropyrrolo[2,1-a]isoquinoline-2-carboxamide]
17 | < 0.1 | COc1cc2c(cc1C=C(C)C)-c1cc(C(=O)N[C@@H](CO)Cc3c[nH]c4ccccc34)c(-c3cccc(F)c3)n1CC2 [Example 45, (R)-3-(3-fluorophenyl)-N-(1-hydroxy-3-(1H-indol-3-yl)propan-2-yl)-8-methoxy-9-(2-methylprop-1-enyl)-5,6-dihydropyrrolo[2,1-a]isoquinoline-2-carboxamide]
18 | < 0.1 | COc1cc2c(cc1OC(C)C)-c1cc(C(=O)N[C@@H](CO)Cc3c[nH]c4ccccc34)c(C(=O)C3CC3)n1CC2 [Example 27, (R)-3-(cyclopropanecarbonyl)-N-(1-hydroxy-3-(1H-indol-3-yl)propan-2-yl)-9-isopropoxy-8-methoxy-5,6-dihydropyrrolo[2,1-a]isoquinoline-2-carboxamide]
19 | < 0.1 | COc1cc2c(cc1OC(C)C)-c1cc(C(=O)N[C@@H](CO)Cc3c[nH]c4ccccc34)c(C=C(C)C)n1CC2 [Example 23, (R)—N-(1-hydroxy-3-(1H-indol-3-yl)propan-2-yl)-9-isopropoxy-8-methoxy-3-(2-methylprop-1-enyl)-5,6-dihydropyrrolo[2,1-a]isoquinoline-2-carboxamide]
20 | < 0.1 | COc1cc2c(cc1-c1cnc(N(C)C)nc1)-c1cc(C(=O)N[C@@H](CO)Cc3c[nH]c4ccccc34)c(-c3cccs3)n1CC2 [Example 56, (R)-9-(2-(dimethylamino)pyrimidin-5-yl)-N-(1-hydroxy-3-(1H-indol-3-yl)propan-2-yl)-8-methoxy-3-(thiophen-2-yl)-5,6-dihydropyrrolo[2,1-a]isoquinoline-2-carboxamide]
21 | < 0.1 | COc1cc2c(cc1-c1cn[nH]c1)-c1cc(C(=O)N[C@@H](CO)Cc3c[nH]c4ccccc34)c(-c3cccs3)n1CC2 [Example 59, (R)—N-(1-hydroxy-3-(1H-indol-3-yl)propan-2-yl)-8-methoxy-9-(1H-pyrazol-4-yl)-3-(thiophen-2-yl)-5,6-dihydropyrrolo[2,1-a]isoquinoline-2-carboxamide]
